Like-named read-outs stand apart in the source and are kept apart here.
How the values were obtained:
[1] = biological target: His-tagged KRAS G12D protein (Homo sapiens, UniProt P01116, G12D); test: KRAS G12D TR-FRET Assay; format: binding
[2] = tested on: Phosphorylation of ERK1/2 in AsPC-1 cells; test: Phospho-ERK1/2 MSD Assay (AsPC-1 cells); format: cell-based; conditions: read-out: p-ERK (AsPC-1 cells) IC50
Outline: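 Read-out: MSD electrochemiluminescent detection of phosphorylated ERK1/2 in whole-cell lysates, fitted to a 4-parameter logistic curve for IC50. Prior to lysis, AsPC-1 cells (25,000 per well) received a 2 h compound dose-response at 37 °C.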

[3] = tested on: Phosphorylation of ERK1/2 in A-427 cells; test: Phospho-ERK1/2 MSD Assay (A-427 cells); format: cell-based; conditions: 2 h treatment, read-out: p-ERK (A427 cells) IC50
Experimental: A-427 (ATCC® HTB-53™) cells were cultured in RPMI 1640 Medium (ThermoFisher Scientific 11875093) containing 10% fetal bovine serum (ThermoFisher Scientific 16000044) and 1× penicillin-streptomycin-glutamine (ThermoFisher Scientific 10378016). Sixteen hours prior to compound treatment, A-427 cells were seeded in 96-well cell culture plates at a density of 25,000 cells/well and incubated at 37° C., 5% CO2. A compound dose-response titration was diluted in growth media, added to appropriate wells of a cell culture plate, and then incubated at 37° C., 5% CO2 for 2 h. Following compound treatment, cells were washed with ice-cold Dulbecco's phosphate-buffered saline, no Ca^2+ or Mg^2+ (ThermoFisher Scientific 14190144), and then lysed in RIPA buffer (50 mM Tris-HCl pH 7.5, 1% Igepal, 0.5% sodium deoxycholate, 150 mM NaCl, and 0.5% sodium dodecyl sulfate) containing protease inhibitors (Roche 4693132001) and phosphatase inhibitors (Roche 4906837001). Phosphorylation of ERK1/2 in compound-treated lysates was assayed using Phospho-ERK1/2 Whole Cell Lysate kits (Meso Scale Discovery K151DWD) according to the manufacturer's protocol. Assay plates were read on a Meso Scale Discovery Sector Imager 6000, and data were analyzed using a 4-parameter logistic model to calculate IC50 values.

[4] = biological target: GDP-bound KRAS protein (aa 1-169), containing both G12D and C118A amino acid substitutions (Homo sapiens, UniProt P01116, C118A/G12D); test: KRAS G12D Coupled Nucleotide Exchange Assay; format: biochemical; conditions: 2 h compound pre-incubation
Experimental: Following compound pre-incubation, purified SOS protein (aa 564-1049) and GTP (Roche 10106399001) were added to the assay wells and incubated for an additional 30 min. […] The assay plates were then read on a PerkinElmer EnVision Multilabel Reader, using AlphaScreen® technology, and data were analyzed using a 4-parameter logistic model to calculate IC50 values.

[5] = Homo sapiens, ASPC1, 2 h, 2 hours treatment

GDP-bound KRAS protein (aa 1-169), containing both G12D and C118A amino acid substitutions, sequence (P01116 1-169 isoform P01116-2 G12D/C118A): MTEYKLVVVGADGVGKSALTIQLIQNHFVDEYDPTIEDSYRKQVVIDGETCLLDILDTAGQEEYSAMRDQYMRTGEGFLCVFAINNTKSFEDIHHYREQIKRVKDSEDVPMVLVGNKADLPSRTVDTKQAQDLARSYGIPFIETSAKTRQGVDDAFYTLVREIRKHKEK
His-tagged KRAS G12D protein, sequence (P01116 1-188 isoform P01116-2 G12D): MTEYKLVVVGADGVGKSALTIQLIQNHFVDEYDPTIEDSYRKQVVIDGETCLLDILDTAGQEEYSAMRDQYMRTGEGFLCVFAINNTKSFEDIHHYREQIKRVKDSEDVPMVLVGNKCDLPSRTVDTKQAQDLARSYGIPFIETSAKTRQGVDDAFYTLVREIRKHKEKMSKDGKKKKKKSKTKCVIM

Row | Structure (SMILES) | IC50 [1] [µM] | IC50 [2, 5] [µM] | IC50 ([3]; Homo sapiens, A-427, 2 h) [µM] | Avg 2 h Coupled Exchange IC50 [4] [µM] | IC50 ([2]; Homo sapiens, ASPC1, 2 hours treatment) [µM] | IC50 ([3]; Homo sapiens) [µM] | IC50 ([2]; 2 hours treatment) [µM] | IC50 [3] [µM]
1 | CCc1cccc2cccc(-c3cc4nc(OC[C@@]56CCCN5C[C@H](F)C6)nc(N5C[C@H]6CC[C@@H](C5)N6)c4cc3F)c12 [Example 72, 4-((1R,5S)-3,8-diazabicyclo[3.2. 1]octan-3-yl)-7-(8-ethylnaphthalen-1-yl)-6-fluoro-2-(((2R,7aS)-2-fluorotetrahydro-1H-pyrrolizin-7a(5H)-yl)methoxy) quinazoline] | 0.023 | 2.6 | 2.68 | 0.018 |  |  |  | 
2 | Oc1cc(-c2c(F)cc3c(N4C[C@H]5CCC[C@@H](C4)N5)nc(OC[C@@]45CCCN4C[C@H](F)C5)nc3c2F)c2ccccc2c1 [Example 120, 4-(4-((1R,5S)-3,9-diazabicyclo[3.3.1]nonan-3-yl)-6,8-difluoro-2-(((2R,7aS)-2-fluorotetrahydro-1H-pyrrolizin-7a(5H)-yl)methoxy)quinazolin-7-yl)naphthalen-2-ol] | 0.008 | 1.17 | 1.16 | 0.004 |  |  |  | 
3 | Oc1cc(-c2c(F)cc3c(N4C[C@H]5C[C@@H](C4)N5)nc(OCC45CCCN4CC(F)(F)C5)nc3c2F)c2ccccc2c1 (stereo partly drawn) [Example 20, 4-(4-((1R,5S)-3,6-diazabicyclo[3.1. 1]heptan-3-yl)-2-((2,2-difluorotetrahydro-1H-pyrrolizin-7a(5H)-yl)methoxy)-6,8-difluoroquinazolin-7-yl)naphthalen-2-ol] | 0.087 | 5.56 | 7.28 | 0.04 |  |  |  | 
4 | N#Cc1cc(O)cc(-c2c(F)cc3c(N4C[C@H]5CC[C@@H](C4)N5)nc(OC[C@@]45CCCN4C[C@H](F)C5)nc3c2F)c1C1CC1 [Example 227, 3-(4-((1R,5S)-3,8-Diazabicyclo[3.2.1]octan-3-yl)-6,8-difluoro-2-(((2R,7aS)-2-fluorotetrahydro-1H-pyrrolizin-7a(5H)-yl)methoxy)quinazolin-7-yl)-2-cyclopropyl-5-hydroxybenzonitrile] | 0.003 | 0.308 | 0.048 | 0.004 |  |  |  | 
5 | Fc1cc2c(N3[C@@H]4CC[C@H]3CNC4)nc(OC[C@@]34CCCN3C[C@H](F)C4)nc2c(F)c1-c1cccc2cccc(Cl)c12 [Example 22, 4-((1R,5S)-3,8-diazabicyclo[3.2. 1]octan-8-yl)-7-(8-chloronaphthalen-1-yl)-6,8-difluoro-2-(((2R,7aS)-2-fluorotetrahydro-1H-pyrrolizin-7a(5H)-yl)methoxy) quinazoline] | 0.017 | 2.35 | 2.66 | 0.014 |  |  |  | 
6 | Fc1cc2c(N3[C@@H]4CC[C@H]3CNC4)nc(OC[C@@]34CCCN3C[C@H](F)C4)nc2c(F)c1-c1cncc2cccc(Cl)c12 [Example 101, 4-((1R,5S)-3,8-Diazabicyclo[3.2.1]octan-8-yl)-7-(5-chloroisoquinolin-4-yl)-6,8-difluoro-2-(((2R,7aS)-2-fluorotetrahydro-1H-pyrrolizin-7a(5H)-yl)methoxy)quinazoline] | 0.07 |  |  | 0.035 | 1.71 | 2.92 |  | 
7 | Oc1cc(-c2ccc3c(N4[C@@H]5CC[C@H]4CNC5)nc(OC[C@@]45CCCN4C[C@H](F)C5)nc3c2F)c2ncccc2c1 [Example 25, 8-(4-((1R,5S)-3,8-diazabicyclo[3.2. 1]octan-8-yl)-8-fluoro-2-(((2R,7aS)-2-fluorotetrahydro-1H-pyrrolizin-7a(5H)-yl)methoxy)quinazolin-7-yl)quinolin-6-ol] | 0.058 | 14.8 | 5.05 | 0.017 |  |  |  | 
8 | CCc1c(F)ccc2cc(O)cc(-c3ccc4c(N5[C@@H]6CC[C@H]5CNC6)nc(OC[C@@]56CCCN5C[C@H](F)C6)nc4c3C)c12 [Example 161, 4-(4-((1R,5S)-3,8-diazabicyclo[3.2.1]octan-8-yl)-2-(((2R,7aS)-2-fluorotetrahydro-1H-pyrrolizin-7a(5H)-yl)methoxy)-8-methylquinazolin-7-yl)-5-ethyl-6-fluoronaphthalen-2-ol] | 0.075 | 9.75 | 10 | 0.079 |  |  |  | 
9 | N#Cc1cccc2cc(O)cc(-c3c(F)cc4c(N5C[C@H]6CC[C@@H](C5)N6)nc(OC[C@@]56CCCN5C[C@H](F)C6)nc4c3F)c12 [Example 204, 8-(4-((1R,5S)-3,8-Diazabicyclo[3.2.1]octan-3-yl)-6,8-difluoro-2-(((2R,7aS)-2-fluorotetrahydro-1H-pyrrolizin-7a(5H)-yl)methoxy)quinazolin-7-yl)-6-hydroxy-1-naphthonitrile] | 0.002 | 0.098 | 0.026 | 0.003 |  |  |  | 
10 | CCc1c(F)ccc2cc(O)cc(-c3cc4nc(OC[C@@]56CCCN5C[C@H](F)C6)nc(N5C[C@H]6CC[C@@H](C5)N6)c4cc3O)c12 [Example 201, 4-((1R,5S)-3,8-diazabicyclo[3.2.1]octan-3-yl)-7-(8-ethyl-7-fluoro-3-hydroxynaphthalen-1-yl)-2-(((2R,7aS)-2-fluorotetrahydro-1H-pyrrolizin-7a(5H)-yl)methoxy) quinazolin-6-ol] | 0.003 | 0.045 | 0.016 | 0.006 |  |  |  | 
11 | CCc1c(F)ccc2cc(O)cc(-c3c(F)cc4c(N5C6CCC5C(=O)NC6)nc(OC[C@@]56CCCN5C[C@H](F)C6)nc4c3F)c12 (single isomer, unassigned) [Example 176] | 0.011 |  |  | 0.007 |  |  | 2.65 | 0.545
12 | Fc1c(-c2c(Cl)ccc3[nH]ncc23)ccc2c(N3C[C@H]4CC[C@@H](C3)N4)nc(OC[C@@]34CCCN3C[C@H](F)C4)nc12 [Example 196, 4-((1R,5S)-3,8-diazabicyclo[3.2.1]octan-3-yl)-7-(5-chloro-1H-indazol-4-yl)-8-fluoro-2-(((2R,7aS)-2-fluorotetrahydro-1H-pyrrolizin-7a(5H)-yl)methoxy) quinazoline] | 0.037 | 2.31 | 1.36 | 0.02 |  |  |  | 
13 | N#Cc1cccc2cc(O)cc(-c3ccc4c(N5C[C@H]6CC[C@@H](C5)N6)nc(OC[C@@]56CCCN5C[C@H](F)C6)nc4c3F)c12 [Example 205, 8-(4-((1R,5S)-3,8-Diazabicyclo[3.2.1]octan-3-yl)-8-fluoro-2-(((2R,7aS)-2-fluorotetrahydro-1H-pyrrolizin-7a(5H)-yl)methoxy)quinazolin-7-yl)-6-hydroxy-1-naphthonitrile] | 0.006 | 0.293 | 0.071 | 0.007 |  |  |  | 
14 | Cc1c(-c2cc(O)cc3ccccc23)ccc2c(N3[C@@H]4CC[C@H]3CNC4)nc(OC[C@@]34CCCN3C[C@H](F)C4)nc12 [Example 34, 4-(4-((1R,5S)-3,8-diazabicyclo[3.2. 1]octan-8-yl)-2-(((2R,7aS)-2-fluorotetrahydro-1H-pyrrolizin-7a(5H)-yl)methoxy)-8-methylquinazolin-7-yl)naphthalen-2-ol] | 0.047 | 2.98 | 2.57 | 0.022 |  |  |  | 

Source: patent publication US20250059205A1, “Heterocyclic Compounds and Methods of Use” (AMGEN INC., priority 2021, published 2025)
